Test results from publication PMC4336141, “Repurposing Auranofin as a Lead Candidate for Treatment of Lymphatic Filariasis and Onchocerciasis” (PLoS Neglected Tropical Diseases, 2015).
pIC50: −log10 of the molar value. “And” between values parts separate entries of the source, which are not always exact repeats. Equal entries are not always repeated.

Experiments:
[1] = Plasma gold levels (elemental gold analysis) in Brugia infected gerbils; assay type: in vivo, Mongolian gerbils (Meriones unguiculatus)
Description: (§1) Animal studies were performed under IACUC approval #AN085723–02 to test the efficacy of auranofin in vivo. Male Mongolian gerbils (Meriones unguiculatus, Charles River Laboratories International, Inc., Wilmington, MA) were injected intraperitoneally (IP) with 300 B. pahangi L3 (Filariatech, Inc., Athens, GA) and treated 3 months post-infection. Auranofin was dissolved in 100% ethanol at 4 mg/mL and mixed 1:1 with PBS. Vehicle doses consisted of the same mixture of ethanol and PBS but without auranofin. Doses (up to 200 μl) were given to gerbils orally at 5 mg/kg body weight, BID weekdays and SID weekends for a total of 48 doses over 4 weeks.
(§2) Two studies (Study 1 and Study 2) were conducted using the same protocols and the same dosing schedule except that in Study 1, two gerbils from the auranofin treatment group and two gerbils from the vehicle group were treated for 14 days and were necropsied 2 hours after their last dose (interim necropsy) to determine plasma gold levels (from auranofin). The remaining gerbils in Study 1 were treated for 28 days and were necropsied 11, 14, or 16 days after the end of dosing. In Study 2, all gerbils were treated for 28 days and were necropsied 16 days after the end of dosing. For both of these in vivo studies, worms were collected from the gerbil’s peritoneal cavity, counted, sexed and examined under a dissecting microscope. For each study a two-tailed Student’s T-test assuming equal variance was conducted using Microsoft Excel to determine the statistical significance of the difference in mean worm retrieval between the auranofin treated and vehicle treated groups. Gerbil blood was collected by cardiac puncture and plasma was sent to NMS Labs, Willow Grove, PA to determine plasma gold levels (elemental gold analysis) by graphite furnace atomic absorption spectroscopy.

L. loa microfilariae = experiment: Loa loa microfilariae motility in vitro; assay type: cell-based; settings: Day 5
Description: Loa loa microfilariae were purified from the blood of a heavily infected subject (having approximately 10,000 microfilariae/mL of blood) using Percoll (GE Healthcare, Piscataway, NJ) gradient centrifugation. Venous blood (10 mL) was collected from consenting, infected individuals in an EDTA tube. The blood was layered on a step-wise Percoll gradient (46% and 43% Percoll prepared in CCM) followed by centrifugation at 400 rcf for 20 minutes. The L. loa microfilariae were recovered in the 43% layer, washed 3 times in CCM and counted.
(§3) Microfilariae (10–15 per well) were cultured in 96-well culture plates in duplicate under the same conditions and drug concentrations as were used for the adult O. ochengi, except that 10 μg/mL ivermectin was used as a positive control. Microfilariae viability was visually scored based on motility reduction using the same scale described above for adult male O. ochengi. Scores were recorded every 24 hours after the addition of drugs for 5 days using an inverted microscope.

glutathione peroxidase = molecular target: glutathione peroxidase; parameters: method as in PMID 9685351; settings: higher IC50; cited from earlier work
adult B. malayi = experiment: Adult Brugia malayi worm motility assay (Worminator) in vitro; assay type: cell-based; settings: for pIC50: B. malayi, Adult, Day 3, motility
Description: Adult female and male Brugia (B. malayi and B. pahangi) were shipped from TRS Labs Inc., Athens, GA and assayed using methods described by Marcellino et al. (2012). Individual females were placed in each well of a 24-well plate with media (RPMI-1640 with 25 mM HEPES, 2.0 g/L NaHCO3, 5% heat inactivated FBS, and 1X Antibiotic/Antimycotic solution). Excess media was removed from plates using a Biomek FxP, leaving 500 μL of media per well. Initial screening of a library of FDA-approved compounds, compiled by the Small Molecule Discovery Center at the University of California San Francisco, was conducted at 10 μM per compound, and 1% DMSO was used as a negative control. All drugs including auranofin (Enzo Life Sciences, Farmingdale, NY) were dissolved in DMSO (Sigma-Aldrich, St. Louis, MO) and 10 mM stock solutions were stored at -20°C. Four worms were used as replicates for each concentration and worm plates were kept in a 37°C, 5% CO2 incubator for four days.
To determine the effect of a compound on worm motility, individual worm movements were counted as the number of pixels displaced per second by each worm in each well using the Worminator. Each plate of worms was video recorded for approximately 60 seconds, and mean movement units (MMUs) were determined for individual worms. Percent inhibition of motility was calculated by dividing the MMUs of the treated worms by the control average MMUs, subtracting the value from 1.0, flooring the values to zero and multiplying by 100%. Videos were recorded for 4 days, including the first day of the assay (Day 0). IC50 determinations were conducted at 10 μM, 3 μM, 1 μM, 0.3 μM, 0.1 μM and 0.03 μM, with 1% DMSO used as a control. IC50 assays were repeated at the same concentrations and at six point, three-fold dilutions from 1 μM to 0.003 μM or 3 μM to […] to ensure that activity was consistent between assays. Prism 4.0 was used to calculate IC50 values using a non-linear regression curve fit. The means of all IC50s with R^2 values greater than or equal to 0.7 are reported.

O. ochengi microfilariae = experiment: Onchocerca ochengi microfilariae motility in vitro; assay type: cell-based; settings: Day 5
Description: O. ochengi microfilariae were obtained from the umbilical skin of infected cattle and cultured on confluent monkey kidney epithelial cells for drug testing as previously described.
as §3

B. pahangi = experiment: Worm retrieval from B. pahangi infected gerbils treated orally; assay type: in vivo, Mongolian gerbils (Meriones unguiculatus); settings: for reduction in worm burden: 48 doses over 28 days, vs vehicle
Description: as §1, §2

[2] = Study 1 interim necropsy, 14 days of treatment

Question: Which “mean plasma gold level” value ([1]; Study 1, 16 days after the last dose) does the source give for CC[PH](CC)(CC)[Au][S][C@@H]1O[C@H](COC(C)=O)[C@@H](OC(C)=O)[C@H](OC(C)=O)[C@H]1OC(C)=O [auranofin, 2,3,4,6-tetra-O-acetyl-1-thio-beta-D-glucopyranosato-S (triethylphosphine) gold] here?
Answer: Its value is 701 nM.

Question: And the “mean plasma gold level” value ([1]; Study 2, 16 days after the last dose)?
Answer: The value was 609 nM.

Question: And the Plasma gold levels ([1]; Study #1, 2 hours after last dose, interim necropsy after 14 days of treatment, 5 mg/kg oral, individual gerbils, 5 mg/kg)?
Answer: Its Plasma gold levels is 1700 µg/L and 1000 µg/L.

Question: And the Plasma gold levels ([1]; Study #1, 11 days after last dose, 28 days of treatment)?
Answer: Its Plasma gold levels is 270 µg/L.

Question: And the Plasma gold levels ([1]; Study #1, 14 days after last dose, 28 days of treatment)?
Answer: The Plasma gold levels was 340 µg/L.

Question: What about the Plasma gold levels ([1]; Study #1, 16 days after last dose, individual gerbils, values less than 100 μg/L given as zero) of the same molecule?
Answer: Its Plasma gold levels is 170 µg/L and 190 µg/L and 160 µg/L.

Question: What about the Concentration of gold ([1]; Study #1, plasma, 2 hours after last dose, interim necropsy after 14 days of treatment, individual gerbils) of the same molecule?
Answer: Its Concentration of gold is 5080 nM and 8630 nM and 8631 nM and 5077 nM.

Question: And the Concentration of gold ([1]; Study #1, plasma, 11 days after last dose)?
Answer: The Concentration of gold was 1371 nM.

Question: And the Concentration of gold ([1]; Study #1, plasma, 14 days after last dose)?
Answer: Its Concentration of gold is 1726 nM.

Question: What about the Concentration of gold ([1]; Study #1, plasma, 16 days after last dose, individual gerbils, values less than 508 nM given as zero) of the same molecule?
Answer: Its Concentration of gold is 863 nM and 965 nM and 812 nM.

Question: And the Plasma gold levels ([1]; Study #2, 16 days after last dose, individual gerbils, values less than 100 μg/L given as zero)?
Answer: Its Plasma gold levels is 130 µg/L and 190 µg/L and 160 µg/L.

Question: What about the Concentration of gold ([1]; Study #2, plasma, 16 days after last dose, individual gerbils, values less than 508 nM given as zero) of the same molecule?
Answer: The Concentration of gold was 660 nM and 965 nM and 812 nM.

Question: What about the “gold levels in blood” value ([1]; approximately 2 weeks after the last dose) of the same molecule?
Answer: Its value is 0.66 µM.

Question: And the pIC50 (L. loa microfilariae)?
Answer: Its pIC50 is 4.89.

Question: And the “IC50 relative to TrxR isolated from human placenta” value (glutathione peroxidase)?
Answer: Its value is “about 1000 fold”.

Question: And the pIC50 (adult B. malayi; Female)?
Answer: Its pIC50 is 5.96.

Question: What about the pIC50 (adult B. malayi; Male) of the same molecule?
Answer: Its pIC50 is 6.52.

Question: What about the inhibition of motility (adult B. malayi; female B. malayi, 3 μM, within 18 hours of incubation) of the same molecule?
Answer: The inhibition of motility was 97%.

Question: And the pIC50 (O. ochengi microfilariae)?
Answer: The pIC50 was 5.52.

Question: What about the “reduction in worm burden” value (B. pahangi; Study 1, 5 mg/kg oral, not statistically significant (p > 0.05)) of the same molecule?
Answer: Its value is 58%.

Question: And the “average number of worms” value (B. pahangi; Study 1, all treated animals (n = 9), vehicle 9.4)?
Answer: Its value is 4.0 worms.

Question: What about the female worms (B. pahangi; [2]) of the same molecule?
Answer: Its female worms is 7.

Question: What about the male worms (B. pahangi; [2]) of the same molecule?
Answer: Its male worms is 4.

Question: What about the “total number of worms” value (B. pahangi; Study 1 interim necropsy, 14 days of treatment, two gerbils, vehicle 43) of the same molecule?
Answer: Its value is 11.

Question: And the male worms recovered (B. pahangi; Study 2)?
Answer: Its male worms recovered is 11.

Question: What about the “reduction in worm burden” value (B. pahangi; Study 2, 5 mg/kg oral, necropsy 16 days after end of dosing, p = 0.01) of the same molecule?
Answer: The value was 91%.

Question: And the female worms recovered (B. pahangi; Study 2, remaining female encapsulated with host tissue)?
Answer: The female worms recovered was 1.

Question: What about the “mean worms per gerbil” value (B. pahangi; Study 2, vehicle 32) of the same molecule?
Answer: Its value is 3 worms per gerbil.

Question: What about the total worms recovered (B. pahangi; Study 2, vehicle 161) of the same molecule?
Answer: Its total worms recovered is 12.
